Experimental data published in US20070122429A1, “Designed antigens to elicit neutralizing antibodies against sterically restricted antigen and method of using same” (priority 2005, published 2007).
Where no end group is shown, it is not given here. MBP = not defined here

What was measured:
IZN36-MBP = test: co-precipitation with biotinylated IZN36-MBP on streptavidin beads; type: binding; conditions: SDS-PAGE
Description: This mixture is then added to magnetic streptavidin beads (Dynal), which bind to the biotinylated IZN36-MBP.

HXB2 Env = molecular target: T1, HXB2 Env (Human immunodeficiency virus type 1 group M subtype B, UniProt P04578); type: cell-based, HIV-1; conditions: range over cell-cell fusion and viral infectivity assays
T1 construct: expressed in transfected cells; host or cells: Chinese hamster ovary cells expressing HXB2 Env, mixed with HeLa-CD4-LTR-β-galactosidase cells
Description: Cell-cell fusion was monitored. HXB2 Env-expressing Chinese hamster ovary cells were mixed with HeLa-CD4-LTR-β-galactosidase cells in the presence of inhibitors for 20 h at 37° C. Syncytia were stained with 5-bromo-4-chloro-3-indolyl-β-D-galactopyranoside (X-gal) and counted.
Viral infectivity was measured by the following method: pseudotyped viruses were produced by co-transfecting 293T cells using FuGENE (Roche Applied Science) with pNL4-3.Luc.R-E- and either pEBB-HXB2 or pEBB-JRFL. After 36-48 h, viral supernatants were collected and sterile filtered. HXB2 or JRFL pseudotyped virus was added to HOS-CD4-fusin or HOS-CD4-CCR5 cells, respectively, in the presence of inhibitors. HXB2 assays included 20 μg/ml DEAE-dextran. After 12 h, virus and inhibitor were removed and replaced with fresh media. Cells were lysed 40-44 h after infection using Glo lysis buffer (Promega), and luciferase activity was measured using Bright-Glo (Promega). IC50 values for both assays were calculated by fitting data to the equation, y=k/(1+[inhibitor]/IC50), where y is the normalized number of syncytia or luciferase activity and k is the scaling constant.

For “MBP-C37: Escherichia coli maltose-binding protein fused by Ser5Gly2 linker to C37 ({MBP}-SSSSSGGHTTWMEWDREINNYTSLIHSLIEESQNQQEKNEQELLHHHHHH; reading uncertain; also: fused to maltose-binding protein (not in chain))”, which “binding to IZN36-MBP” value (IZN36-MBP) is on record?
Its value is “reduced binding”.

And the “reduction in potency relative to C37” value (HXB2 Env)?
The value was 75-228 fold.
